These compounds were tested against Bovine PDE10A (bPDE10A) (Bos taurus, UniProt A0A3Q1MHJ4) (assay: Measurement of PDE10 inhibitory activity (PDE assay, radiolabeled nucleotide method), bovine enzyme). Settings: PDE10A of bovine (corpus striatum); substrate 3H-cAMP, final 7 nM; room temperature 90 min.
Assay type: biochemical
From the text: (§1) (1) Bovine PDE10A (bPDE10A) was isolated and prepared from bovine corpus striatum, according to the methods described in the reference Fujishige et al., Eur. J. Biochem., vol. 266, pp. 1118-1127, 1999. Human PDE10A (hPDE10A) was isolated from COS-7 cells transfected with plasmids coding for human PDE10A2, according to the methods described in the reference Kotera et al., Biochem. Biophys. Res. Commun., vol. 261, pp. 551-557, 1999. The enzyme solutions obtained were used for a PDE assay.
(§2) The PDE assay was performed according to a modified method referred to a report of Kotera et al. (Kotera et al., Biochem. Pharmacol., vol. 60, pp. 1333-1341, 2000), by the radiolabeled nucleotide method.
(§3) Specifically, the measurements of the inhibitory activities were carried out in the following method.
(Method) The test compounds were dissolved in dimethyl sulfoxide (DMSO). 2 μL of the compound solution was added to 96 well plate, and the reaction mixture (20 μL of PDE enzyme solution in 50 mM Tris-HCl, pH 8.0, 40 μL of the assay buffer (50 mM Tris-HCl, pH 8.0, 2 mM MgCl2, 0.07% 2-mercaptoethanol, and 0.825 mg/mL bovine serum albumin), and 20 μL of 1 mg/mL snake venom in 50 mM Tris-HCl, pH8.0) was added to the 96 well plate. […] 50 μL of the eluate together with wash eluate with additional 100 μL methanol was collected in another plate and the radioactivity was measured. […]

Bovine PDE10A (bPDE10A), sequence (A0A3Q1MHJ4 1-1068): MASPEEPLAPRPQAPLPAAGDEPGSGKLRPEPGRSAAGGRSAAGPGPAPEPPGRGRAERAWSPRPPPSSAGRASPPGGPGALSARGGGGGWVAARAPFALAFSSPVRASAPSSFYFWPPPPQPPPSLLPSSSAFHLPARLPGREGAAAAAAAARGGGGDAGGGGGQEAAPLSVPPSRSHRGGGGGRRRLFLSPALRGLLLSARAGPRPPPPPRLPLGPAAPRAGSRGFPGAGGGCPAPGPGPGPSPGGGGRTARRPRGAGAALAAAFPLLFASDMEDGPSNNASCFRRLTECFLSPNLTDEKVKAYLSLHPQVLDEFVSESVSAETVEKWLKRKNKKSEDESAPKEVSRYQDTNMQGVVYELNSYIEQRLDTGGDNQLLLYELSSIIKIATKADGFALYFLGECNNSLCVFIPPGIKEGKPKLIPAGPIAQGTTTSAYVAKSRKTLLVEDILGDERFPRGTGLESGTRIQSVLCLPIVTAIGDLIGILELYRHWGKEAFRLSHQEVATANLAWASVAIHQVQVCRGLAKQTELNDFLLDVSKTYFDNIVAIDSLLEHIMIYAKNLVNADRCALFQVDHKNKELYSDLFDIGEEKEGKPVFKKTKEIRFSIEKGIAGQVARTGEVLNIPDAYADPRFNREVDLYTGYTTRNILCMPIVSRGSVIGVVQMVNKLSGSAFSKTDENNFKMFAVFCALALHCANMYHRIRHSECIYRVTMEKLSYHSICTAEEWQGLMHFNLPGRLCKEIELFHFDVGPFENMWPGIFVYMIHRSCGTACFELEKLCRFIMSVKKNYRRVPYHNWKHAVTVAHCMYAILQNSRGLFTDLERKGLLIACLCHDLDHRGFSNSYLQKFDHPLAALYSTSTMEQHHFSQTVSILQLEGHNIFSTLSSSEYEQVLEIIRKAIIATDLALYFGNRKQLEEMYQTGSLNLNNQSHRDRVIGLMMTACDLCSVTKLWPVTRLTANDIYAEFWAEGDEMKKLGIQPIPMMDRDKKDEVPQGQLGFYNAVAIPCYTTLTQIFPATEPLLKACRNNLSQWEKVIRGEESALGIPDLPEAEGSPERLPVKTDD

**Q.** How did the IC50 turn out when `COCCN(CCOC)c1cc(N2CCCC2)nc2cc(-c3nc4cc(C)ccc4nc3C)nn12` [Example 1.050, 2-(3,7-dimethylquinoxalin-2-yl)-N,N-bis(2-methoxyethyl)-5-pyrrolidin-1-ylpyrazolo[1,5-a]pyrimidin-7-amine] was run?
**A.** Its IC50 is 0.019 nM.

What follows are compounds tested against Human PDE10A (hPDE10A) (Homo sapiens (Human), UniProt Q9Y233) (assay: Measurement of PDE10 inhibitory activity (PDE assay, radiolabeled nucleotide method), human enzyme). Settings: PDE10A of human (PDE10A2 expressed in COS-7 cells); substrate 3H-cAMP, final 7 nM; room temperature 90 min.
Human PDE10A (hPDE10A), sequence (Q9Y233 267-1055): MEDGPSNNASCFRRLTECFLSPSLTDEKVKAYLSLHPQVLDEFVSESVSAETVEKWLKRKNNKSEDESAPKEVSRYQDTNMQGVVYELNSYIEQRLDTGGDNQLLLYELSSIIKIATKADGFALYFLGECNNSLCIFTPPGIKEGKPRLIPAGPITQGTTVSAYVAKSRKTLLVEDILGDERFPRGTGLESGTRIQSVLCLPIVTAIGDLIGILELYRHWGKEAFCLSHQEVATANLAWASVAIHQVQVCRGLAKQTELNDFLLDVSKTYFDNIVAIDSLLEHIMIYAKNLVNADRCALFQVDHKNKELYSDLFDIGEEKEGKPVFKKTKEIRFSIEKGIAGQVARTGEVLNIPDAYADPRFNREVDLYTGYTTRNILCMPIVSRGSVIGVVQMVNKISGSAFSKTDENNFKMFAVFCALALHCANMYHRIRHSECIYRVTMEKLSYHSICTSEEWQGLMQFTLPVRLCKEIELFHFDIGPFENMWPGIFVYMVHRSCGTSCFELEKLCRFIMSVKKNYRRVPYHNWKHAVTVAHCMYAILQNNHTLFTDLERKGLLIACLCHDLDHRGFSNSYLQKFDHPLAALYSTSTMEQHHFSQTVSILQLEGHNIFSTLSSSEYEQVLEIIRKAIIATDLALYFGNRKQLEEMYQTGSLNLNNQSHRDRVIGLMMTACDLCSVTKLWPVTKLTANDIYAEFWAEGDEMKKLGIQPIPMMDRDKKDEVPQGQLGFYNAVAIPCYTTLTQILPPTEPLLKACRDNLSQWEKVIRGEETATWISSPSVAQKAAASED
Assay type: biochemical
From the text: as §1, §2, §3
(Method) The test compounds were dissolved in dimethyl sulfoxide (DMSO). 2 μL of the compound solution was added to 96 well plate, and the reaction mixture (20 μL of PDE enzyme solution in 50 mM Tris-HCl, pH 8.0, 40 μL of the assay buffer (50 mM Tris-HCl, pH 8.0, 2 mM MgCl2, 0.07% 2-mercaptoethanol, and 0.825 mg/mL bovine serum albumin), and 20 μL of 1 mg/mL snake venom in 50 mM Tris-HCl, pH8.0) was added to the 96 well plate. The enzyme reaction was started by adding and mixing with substrate solution of 20 μL containing approximate 35 nM ^3H-cAMP in 50 mM Tris-HCl, pH 8.0. The final concentration of cAMP in the reaction mixtures was 7 nM. The reaction mixtures were incubated at room temperature for 90 min. After incubation, the reaction was stopped by adding 100 μL of methanol and resultant solutions were applied to filter plate containing Dowex (1×8 200-400) and centrifuged. 50 μL of the eluate together with wash eluate with additional 100 μL methanol was collected in another plate and the radioactivity was measured.
(2) The compounds in the Examples below were tested for PDE inhibition using the Method described above.

**Q.** With `Cc1nc2c(nc1-c1cc3nc(N4CCCC4)cc(N[C@H]4CC[C@](C)(O)CC4)n3n1)CCCO2` [Example 1.173, trans-1-methyl-4-{[2-(3-methyl-7,8-dihydro-6H-pyrano[2,3-b]pyrazin-2-yl)-5-pyrrolidin-1-ylpyrazolo[1,5-a]pyrimidin-7-yl]amino}cyclohexanol] as the compound, how does the IC50 read?
**A.** The IC50 was 0.27 nM.

**Q.** How did the IC50 turn out when `Cc1nc2ccc(F)cc2nc1-c1cc2nc(N3CC[C@H](F)C3)cc(N[C@H]3CC[C@@](C)(O)CC3)n2n1` [Example 1.175, cis-4-({2-(7-fluoro-3-methylquinoxalin-2-yl)-5-[(3R)-3-fluoropyrrolidin-1-yl]pyrazolo[1,5-a]pyrimidin-7-yl}amino)-1-methylcyclohexanol] was run?
**A.** Its IC50 is 0.12 nM.

**Q.** With `CCCc1cnc(C)c(-c2cc3nc(N4CCCC4)cc(N(C)C4CCOCC4)n3n2)n1` [Example 1.181, N-methyl-2-(3-methyl-6-propylpyrazin-2-yl)-5-pyrrolidin-1-yl-N-(tetrahydro-2H-pyran-4-yl)pyrazolo[1,5-a]pyrimidin-7-amine] as the compound, how does the IC50 read?
**A.** Its IC50 is 0.64 nM.

**Q.** With `Cc1cn2nccc2nc1-c1cc2nc(N3CCCC3)cc(NCC(C)(C)O)n2n1` [Example 1.184, 2-methyl-1-[(6′-methyl-5-pyrrolidin-1-yl-2,5′-bipyrazolo[1,5-a]pyrimidin-7-yl)amino]propan-2-ol] as the compound, how does the IC50 read?
**A.** The IC50 was 2.5 nM.

**Q.** With `Cc1nc(C)c(-c2cc3nc(N4CCCC4)cc(NCC(C)(C)O)n3n2)nc1CC(C)C` [Example 1.187, 1-{[2-(6-isobutyl-3,5-dimethylpyrazin-2-yl)-5-pyrrolidin-1-ylpyrazolo[1,5-a]pyrimidin-7-yl]amino}-2-methylpropan-2-ol] as the compound, how does the IC50 read?
**A.** The IC50 was 0.6 nM.

**Q.** For `Cc1nc(C)c(C2CC2)nc1-c1cc2nc(N3CCCC3)cc(NCC(C)(C)O)n2n1` [Example 1.189, 1-{[2-(6-cyclopropyl-3,5-dimethylpyrazin-2-yl)-5-pyrrolidin-1-ylpyrazolo[1,5-a]pyrimidin-7-yl]amino}-2-methylpropan-2-ol], which IC50 is on record?
**A.** Its IC50 is 0.18 nM.

**Q.** With `Cc1nc(C)c(C2CC2)nc1-c1cc2nc(N3CCCC3)cc(NC3CCOCC3)n2n1` [Example 1.190, 2-(6-cyclopropyl-3,5-dimethylpyrazin-2-yl)-5-pyrrolidin-1-yl-N-(tetrahydro-2H-pyran-4-yl)pyrazolo[1,5-a]pyrimidin-7-amine] as the compound, how does the IC50 read?
**A.** The IC50 was 0.69 nM.

**Q.** With `Cc1nc2c(nc1-c1cc3nc(N4CCCC4)cc(NC4CCOCC4)n3n1)CCCO2` [Example 1.197, 2-(3-methyl-7,8-dihydro-6H-pyrano[2,3-b]pyrazin-2-yl)-5-pyrrolidin-1-yl-N-(tetrahydro-2H-pyran-4-yl)pyrazolo[1,5-a]pyrimidin-7-amine] as the compound, how does the IC50 read?
**A.** Its IC50 is 2.5 nM.

**Q.** Which IC50 does the source give for `Cc1nc2c(nc1-c1cc3nc(N4CCCC4)cc(NCC(C)(C)O)n3n1)CCCO2` [Example 1.198, 2-methyl-1-{[2-(3-methyl-7,8-dihydro-6H-pyrano[2,3-b]pyrazin-2-yl)-5-pyrrolidin-1-ylpyrazolo[1,5-a]pyrimidin-7-yl]amino}propan-2-ol] here?
**A.** The IC50 was 0.82 nM.

**Q.** For `CO[C@H]1CC[C@H](Nc2cc(N3CCCC3)nc3cc(-c4nc5c(nc4C)OCCC5)nn23)CC1` [Example 1.199, N-(trans-4-methoxycyclohexyl)-2-(3-methyl-7,8-dihydro-6H-pyrano[2,3-b]pyrazin-2-yl)-5-pyrrolidin-1-ylpyrazolo[1,5-a]pyrimidin-7-amine], which IC50 is on record?
**A.** The IC50 was 0.89 nM.

**Q.** Which IC50 does the source give for `Cc1nc2ccncc2nc1-c1cc2nc(N3CCCC3)cc(NC3CCOCC3)n2n1` [Example 5.001, 2-(2-methylpyrido[3,4-b]pyrazin-3-yl)-5-pyrrodin-1-yl-N-(tetrahydro-2H-pyran-4-yl)pyrazolo[1,5-a]pyrimidin-7-amine] here?
**A.** Its IC50 is 0.15 nM.

**Q.** For `Cc1nc2cnccc2nc1-c1cc2nc(N3CCCC3)cc(NC3CCOCC3)n2n1` [Example 5.002, 2-(3-methylpyrido[3,4-b]pyrazin-2-yl)-5-pyrrolidin-1-yl-N-(tetrahydro-2H-pyran-4-yl)pyrazolo[1,5-a]pyrimidin-7-amine], which IC50 is on record?
**A.** Its IC50 is 0.28 nM.

Source: patent US8969376B2, “Pyrazolopyrimidine compounds and their use as PDE10 inhibitors” (Mitsubishi Tanabe Pharma Corporation, priority 2010, dated 2015)
